Read-outs that look alike come from different tables or passages of the source. Square brackets hold non-standard residues; d marks the D form. Ends that are not written are not given here. Peptide text beside a SMILES is read from it. pS = N[C@@H](COP(=O)(O)O)C(=O)O

The term Kd denotes the concentration at which binding is half-saturated.

The target in assay [1] is T1, HLA-A2 (Homo sapiens, UniProt P04439, D140Y/D185E/D98H/E176V/E277Q/G131W/G231S/I119V/I121R/I166T/I218V/L300P/L318F/N151K/N90K/P208A/P217A/Q86G/Q94H/R138H/R169H/T345S).
T1 construct: made in house
As to the kind of experiment: Competitive peptide-MHC affinity assay (displacement of radiolabeled peptide). To be noted: competitive binding, IC50 of displacement of radiolabeled peptide taken as approximation of Kd; 100,000-fold concentration range, each concentration in triplicate; W6/32 capture; read-out: Kd (pMHC affinity for HLA-A2). The method, then:
HLA-A2 heavy chain was expressed in E. coli, refolded with β2M and the peptide […], and purified as described above. Competitive peptide binding assays were carried out as described. Test peptide concentrations covered a 100,000-fold range, with each concentration assayed in triplicate. MHC-peptide complexes were captured on microplates coated with monoclonal antibody W6/32 (to human HLA) and washed, and radioactivity quantified with a microscintillation counter. The concentration of test peptide that displaced 50% of the radiolabeled peptide (IC50) was calculated. In these conditions (in which the concentration of the label is less than the concentration of MHC and the IC50 is greater than or equal to the concentration of MHC), the IC50 is a reasonable approximation of the dissociation constant.

Assay [2] has as its system TCRpCDC25b. As to the kind of experiment: SPR (BIAcore) TCR/peptide-MHC binding, HLA-A2-peptide complex injected over immobilised TCR. Also on record: species or system mice. To be noted: for specific binding of HLA-A2-peptide complex to immobilised TCRpCDC25b: responses compared with control surfaces (LDN5 and streptavidin), Figure 7A. From the text: Having established that phosphorylation has diverse effects on epitope structure, we aimed to test whether a phosphorylated epitope could be distinguished from its unmodified counterpart by the TCR. We previously generated phosphopeptide-specific CD8^+ T cells by immunising mice expressing a transgenic recombinant HLA-A*0201 molecule (AAD) with activated bone-marrow-derived dendritic cells pulsed with synthetic phosphopeptides corresponding to those naturally presented on the surface of human tumour cell lines. Despite the ability to isolate functional phosphopeptide specific T-cells, attempts to generate clonal populations of RQA_V specific T-cells for TCR isolation or produce soluble TCRs of sufficient quality from T-cell clones specific for PKD and RQI were unsuccessful. However we were able to generate soluble TCR (termed TCRpCDC25b) using cDNA sequences isolated from a T cell clone that recognised a phosphopeptide epitope derived from the CDC25b protein (GLLGpSPVRA, subsequently termed GLLGpS) of sufficient quality for surface plasmon resonance analysis.
To investigate if recognition was dependent on the GLLGS amino acid sequence, we also tested binding of immobilised TCRpCDC25b to HLA-A2 containing a different phosphopeptide featuring a p-Ser at position 5 (SLLTpSPPKA (termed SLLTpS) derived from Thyroid hormone receptor interacting protein 12). […] We then measured the strength of TCRpCDC25b phosphopeptide recognition by equilibrium affinity analysis, repeating injections of HLA-A2-GLLGpS over a range of concentrations (Figure 7B). […] In both orientations, the presence of low-level protein aggregates was evident at higher concentrations.
Experiments utilised a BIAcore 3000 and HBS-EP buffer, at a flow rate of 10 μl.min^−1. For HLA-peptide injections, recombinant TCRs were produced in the Drosophila expression system incorporating C-terminal biotinylation tags, biotinylated in vitro using BirA, and immobilised to streptavidin-coated CM5 surfaces. […] Data were analysed using BIAevaluation 3.1 and Origin graphing software.
For orientation: Surface plasmon resonance follows binding to a sensor surface in real time, without labels.

In assay [3] the target is T1, HLA-A2. Also on record: method as in PMID 18836451. To be noted: binding of peptide to HLA-A2, modified vs unmodified form; read-out: Kd (pMHC affinity for HLA-A2); cited from earlier work.

`CC[C@H](C)[C@H](NC(=O)[C@H](CO)NC(=O)[C@H](C)NC(=O)[C@H](CCC(N)=O)NC(=O)[C@@H](N)CCCNC(=N)N)C(=O)N[C@@H](CCC(=O)O)C(=O)N[C@@H](CC(C)C)C(=O)N1CCC[C@H]1C(=O)N[C@@H](CO)C(=O)N[C@@H](CCSC)C(=O)N[C@@H](C)C(=O)N[C@H](C(=O)O)C(C)C` [RQA_Vnp]: the Kd in assay [1] is 26 nM.

In the case of `CC[C@H](C)[C@H](NC(=O)[C@H](COP(=O)(O)O)NC(=O)[C@H](C)NC(=O)[C@H](CCC(N)=O)NC(=O)[C@@H](N)CCCNC(=N)N)C(=O)N[C@@H](CCC(=O)O)C(=O)N[C@@H](CC(C)C)C(=O)N1CCC[C@H]1C(=O)N[C@@H](CO)C(=O)N[C@@H](CCSC)C(=O)N[C@@H](C)C(=O)N[C@H](C(=O)O)C(C)C` [RQA_Vp], the Kd in assay [1] worked out at 60 nM.

In the case of `CC[C@H](C)[C@H](NC(=O)[C@H](CCC(N)=O)NC(=O)[C@@H](N)CCCNC(=N)N)C(=O)N[C@@H](COP(=O)(O)O)C(=O)N[C@@H](CCC(N)=O)C(=O)N[C@@H](CC(=O)O)C(=O)N[C@H](C(=O)N[C@@H](CCCCN)C(=O)N[C@@H](CC(C)C)C(=O)O)C(C)C` [RQIp] (H-RQI[pS]QDVKL-OH), the Kd in assay [1] came to 25.5 nM. With GLLGpSPVRA, the “specific binding of HLA-A2-peptide complex to immobilised TCRpCDC25b” value in assay [2] is “specific binding”. The Kd in assay [2] (two independent equilibrium analyses, once in either orientation, Scatchard analyses and hyperbolic fitting, read-out: Kd values from both orientations (range)) lay within 35000 to 41000 nM. As to “RQApSLSISV [PKD2p, canonical phosphopeptide antigen derived from Protein Kinase D2]”, the equilibrium dissociation constant (Kd) in assay [3] was 38.5 nM. As for RQISQDVKL [RQInp], in assay [1], the Kd came out at 1920 nM. On to SLLTpSPPKA [reference compound], for which the “specific binding of HLA-A2-peptide complex to immobilised TCRpCDC25b” value in assay [2] was “identical responses over TCRpCDC25b and control surfaces”.

Source of the values: publication PMC5589570, “The antigenic identity of human class I MHC phosphopeptides is critically dependent upon phosphorylation status” (Oncotarget, 2017).
